Assay: Inhibition of CYP1A2 (unknown origin)

Row | IC50 [µM] | Structure (SMILES)
1 | < 500 | FC(F)(F)c1nccc2cc(Nc3n[nH]c4nccnc34)ccc12 [N-(1H-pyrazolo[3,4-b]pyrazin-3-yl)-1-(trifluoromethyl) isoquinolin-6-amine]
2 | < 500 | FC(F)(F)c1nccc2cc(Nc3n[nH]c4cccnc34)ccc12 [N-(1H-pyrazolo[4,3-b]pyridin-3-yl)-1-(trifluoromethyl) isoquinolin-6-amine]
